Assay results published in patent publication US6989390B2, “Amonafide salts” (priority 2002, dated 2006).
Where a name gives a salt, the structure may show the parent alone.

Experiments:
[1] = Minimum amount of water/ethanol (1.5/4 v/v) required to dissolve the crude salt at boil (recrystallization); assay type: physicochemical; details: minimum water/ethanol (1.5/4 v/v) to dissolve crude product at boil; salt made by the method in column 2
From the text: For comparative purposes, between and among organic salts prepared in this manner and for the purposes of subsequent Example 3, Table 3, crude reaction products were recrystalized from water/ethanol (1.5/4 v/v per gram of salt) using the minimum amount of solvent to effect dissolution at boil.
In the case of succinic acid, the organic acid was dispensed as a half-equivalent in order to generate mitonafide hemisuccinate. […] Crude product that was isolated from the hydrogenation reaction mixture was analyzed for purity by high pressure liquid chromatography (HPLC) according to the conditions described in Table 1 above. The crude product was recrystallized from water/ethanol (1.5/4 v/v) using the minimum amount of solvent required to dissolve the crude product at boil, which is shown in the last column of Table 3 for each salt. The recrystallized product was then analyzed for purity by HPLC.
The purities of the crude salts were assessed by HPLC according to the conditions described in Table 1 above. The crude salts were then recrystallized from the minimum amount of water/ethanol (1.5/4 v/v) using the minimum amount of solvent required to dissolve the crude product at boil, which is shown in the last column of Table 3 for each salt. The resulting purified salts were again assessed for purity.
The hydrochloride and methanesulfonic acid salts of amonafide were prepared according to U.S. Pat. No. 5,420,137. Exemplary procedures are as follows: 3 g of crude amonafide free base, obtained as described in the previous two paragraphs, above, were dissolved under reflux in 60 ml of virtually anhydrous ethanol. Subsequently 1 ml of 35% (1 equivalent, estimated) strength hydrochloric acid was added dropwise while shaking vigorously. After cooling, the resulting crystals were filtered off and washed with 10 ml of anhydrous ethanol. The methanesulfonic acid salt was obtained using the same procedure, but replacing hydrochloric acid with 0.8 ml of methanesulfonic acid. The purity was assessed by HPLC using the conditions described in Table 1. The isolated products were then recrystallized from water/ethanol (1.5/4 v/v) using the minimum amounts of solvent required to dissolve the crude product at boil, which are shown for each salt in Table 3. The resulting purified salts were again assessed for purity.
The hydrochloride salt of amonafide was obtained by the method of Zee-Chang et al., U.S. Pat. No. 4,614,820. Exemplary conditions are as follows: a mixture of the hydrochloride salt of N-(dimethylaminoethyl)-3-nitro-1,8-naphthalimide and 10% palladium-on-charcoal in water was hydrogenated at room temperature under 40 lbs/in^2 of hydrogen for one hour. […] To the mixture was added 3 ml of concentrated hydrochloric acid. It was then filtered and the filtrate was evaporated to dryness under reduced pressure. The residue was triturated with 30 ml of absolute ethanol and filtered. The resulting solid was then washed with ether and dried. The purity was assessed by HPLC using the conditions described in Table 1. The crude product was then recrystallized from water/ethanol (1.5/4 v/v) using the minimum amount of solvent (40 mL/g) required to dissolve the crude product at boil. The resulting purified salts were again assessed for purity.

[2] = Solubility assessment of amonafide salts (50, 100, 200 mg in 1 ml USP water or isotonic saline); assay type: physicochemical
Procedure: A number of organic acid amonafide salts of the present invention were tested for their solubility in aqueous medium and compared with the solubility of the corresponding hydrochloride and methansolufonic acid salts. […] Solutions were allowed to equilibrate for 1 hour, their dissolution status noted, and then refrigerated for an additional hour (at 2° C.). Thereafter, the samples were returned to room temperature and examined for precipitate formation and allowed to equilibrate for another hour until a final inspection for dissolution status.

[3] = 50 mg salt in 1 ml 0.9% sodium chloride (saline), 0 hours
[4] = 50 mg salt in 1 ml 0.9% sodium chloride (saline), 1 hours
[5] = 50 mg salt in 1 ml distilled water, 0 hours
[6] = 50 mg salt in 1 ml distilled water, 1 hours
[7] = 100 mg salt in 1 ml 0.9% sodium chloride (saline), 0 hours
[8] = 100 mg salt in 1 ml 0.9% sodium chloride (saline), 1 hours
[9] = 100 mg salt in 1 ml distilled water, 0 hours
[10] = 100 mg salt in 1 ml distilled water, 1 hours

**Q.** Which “Solvent” value [1] does the source give for `CN(C)CCN1C(=O)c2cccc3cc(N)cc(c23)C1=O.O=C(O)CCC(=O)C(=O)O` [Amonafide 2-oxoglutarate] here?
**A.** 30 mL/g

**Q.** Which “Solvent” value [1] does the source give for `CN(C)CCN1C(=O)c2cccc3cc(N)cc(c23)C1=O.O=C(O)CCCCC(=O)O` [Amonafide Adipate] here?
**A.** 25 mL/g

**Q.** For `CN(C)CCN1C(=O)c2cccc3cc(N)cc(c23)C1=O.O=C(O)CC(O)(CC(=O)O)C(=O)O` [Amonafide Citrate], which “Solvent” value [1] is on record?
**A.** 25 mL/g

**Q.** What does the source list for `CN(C)CCN1C(=O)c2cccc3cc(N)cc(c23)C1=O` [Amonafide HCl, Amonafide Monohydrochloride, reference compound]?
**A.** solubility in the test panel of Tables 3 and 4 ([2]; monohydrochloride prepared by salt exchange, 99.2% pure): low solubility; Solvent [1]: 40 mL/g

**Q.** For `CN(C)CCN1C(=O)c2cccc3cc(N)cc(c23)C1=O.O=C(O)C(O)C(O)C(=O)O` [Amonafide L-tartrate], which “Solvent” value [1] is on record?
**A.** 20 mL/g

**Q.** Which “Solvent” value [1] does the source give for `CN(C)CCN1C(=O)c2cccc3cc(N)cc(c23)C1=O.O=C(O)CO` [Amonafide glycolate] here?
**A.** 12.5 mL/g

**Q.** For `CN(C)CCN1C(=O)c2cccc3cc(N)cc(c23)C1=O.O=C(O)CC(=O)O` [Amonafide malonate, amonafide malonate], which “Solvent” value [1] is on record?
**A.** 20 mL/g

**Q.** With `CN(C)CCN1C(=O)c2cccc3cc(N)cc(c23)C1=O.O=C(O)c1ccccc1O` [Amonafide salicylate] as the molecule, how does the “Solvent” value [1] read?
**A.** 35 mL/g

**Q.** Which “Solvent” value [1] does the source give for `CN(C)CCN1C(=O)c2cccc3cc(N)cc(c23)C1=O.CS(=O)(=O)O` [Amonafine methanesulfonate, reference compound] here?
**A.** 25 mL/g

**Q.** Which “Solvent” value [1] does the source give for Amonafide Aspartate here?
**A.** 30 mL/g

**Q.** For Amonafide pyruvate, which “Dissolution Status” value [2, 3] is on record?
**A.** Soluble

**Q.** What about the “Dissolution Status” value [2, 4] of the same molecule?
**A.** Soluble

**Q.** What about the “Dissolution Status” value [2, 5] of the same molecule?
**A.** Soluble

**Q.** What about the “Dissolution Status” value [2, 6] of the same molecule?
**A.** Soluble

**Q.** And the “Dissolution Status” value [2, 7]?
**A.** Soluble

**Q.** What about the “Dissolution Status” value [2, 8] of the same molecule?
**A.** Soluble

**Q.** What about the “Dissolution Status” value [2, 9] of the same molecule?
**A.** Soluble

**Q.** What about the “Dissolution Status” value [2, 10] of the same molecule?
**A.** Soluble

**Q.** And the “Dissolution Status” value ([2]; 200 mg salt in 1 ml 0.9% sodium chloride (saline), 0 hours)?
**A.** Partially Soluble

**Q.** And the “Dissolution Status” value ([2]; 200 mg salt in 1 ml 0.9% sodium chloride (saline), 1 hours)?
**A.** Partially Soluble

**Q.** And the “Dissolution Status” value ([2]; 200 mg salt in 1 ml distilled water, 0 hours)?
**A.** Soluble

**Q.** And the “Dissolution Status” value ([2]; 200 mg salt in 1 ml distilled water, 1 hours)?
**A.** Soluble

**Q.** And the “solubility in distilled water and in saline at high concentration compared with the hydrochloride salt forms / organic salts” value ([2]; text summary of Table 4)?
**A.** more soluble

**Q.** What about the “Solvent” value [1] of the same molecule?
**A.** 20 mL/g

**Q.** What does the source list for Amonafide succinate?
**A.** Dissolution Status [2, 3]: Insoluble; Dissolution Status [2, 4]: Insoluble; Dissolution Status [2, 5]: Soluble; Dissolution Status [2, 6]: Soluble; Dissolution Status [2, 7]: Insoluble; Dissolution Status [2, 8]: Insoluble; Dissolution Status [2, 9]: Insoluble; Dissolution Status [2, 10]: Insoluble; Solvent [1]: 20 mL/g

**Q.** Which “Dissolution Status” value [2, 3] does the source give for amonafide fumarate here?
**A.** Insoluble

**Q.** What about the “Dissolution Status” value [2, 4] of the same molecule?
**A.** Insoluble

**Q.** And the “Dissolution Status” value [2, 5]?
**A.** Insoluble

**Q.** And the “Dissolution Status” value [2, 6]?
**A.** Insoluble

**Q.** And the “Solvent” value [1]?
**A.** 25 mL/g

**Q.** For “amonafide hemisuccinate [Amonafide hemi-succinate]”, which “Solvent” value [1] is on record?
**A.** 15 mL/g

**Q.** Which results are given for amonafide maleate?
**A.** Dissolution Status [2, 3]: Insoluble; Dissolution Status [2, 4]: Insoluble; Dissolution Status [2, 5]: Insoluble; Dissolution Status [2, 6]: Insoluble; Solvent [1]: 20 mL/g
